Results published in PMC5453399, “Microfluidic Mobility Shift Assay for Real-Time Analysis of Peptide N-Palmitoylation” (Slas Discovery, 2017).

Target: T1, Hhat (Homo sapiens, UniProt Q5VTY9)
T1 construct: Hhat-FLAG-His8 (C-terminal tags kept), stably expressed in HEK293a cells; DDM-solubilized membrane fraction P100(sol) enriched by Ni-NTA
Assay: microfluidic mobility shift assay, stopped
Type: biochemical

T1 sequence (Q5VTY9 whole entry): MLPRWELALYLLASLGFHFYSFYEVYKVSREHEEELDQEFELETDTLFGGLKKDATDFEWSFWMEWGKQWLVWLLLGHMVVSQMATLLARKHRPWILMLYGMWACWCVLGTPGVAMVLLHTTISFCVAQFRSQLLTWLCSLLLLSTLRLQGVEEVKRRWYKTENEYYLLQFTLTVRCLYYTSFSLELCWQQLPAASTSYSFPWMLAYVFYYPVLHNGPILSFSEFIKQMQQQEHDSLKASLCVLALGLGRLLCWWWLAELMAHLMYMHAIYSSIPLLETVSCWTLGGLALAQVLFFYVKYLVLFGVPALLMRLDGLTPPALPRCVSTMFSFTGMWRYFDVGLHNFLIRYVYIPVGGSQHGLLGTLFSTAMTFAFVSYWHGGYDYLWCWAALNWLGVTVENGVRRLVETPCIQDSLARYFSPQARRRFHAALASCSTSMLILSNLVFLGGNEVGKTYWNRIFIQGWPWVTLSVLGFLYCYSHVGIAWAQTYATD

SMILES: CCC(C)CNCC(=O)N1CCc2sccc2C1c1cccc(C)c1 (stereo not shown) [RUSKI-101]
- IC50: 8.32 ± 3.69 µM
